In ChEMBL document CHEMBL1909046, “DrugMatrix in vitro pharmacology data”:

Tests used:
Cytochrome P450 2C19 = Cytochrome P450 2C19 (Homo sapiens, UniProt P33261); conditions: bti-tn-5b1-4; note: in other assays of this panel Not Active means under 50% inhibition at 10 µM
[1] = molecular target: 5-hydroxytryptamine receptor 4 (Cavia porcellus, UniProt O70528); type: cell membranes, Dunkin-Hartley, Striatum, Membrane; note: in other assays of this panel Not Active means under 50% inhibition at 10 µM
Endothelin-1 receptor = molecular target: T1, Endothelin-1 receptor (Homo sapiens, UniProt P25101); type: cell membranes, CHO-K1, Membrane; conditions: cho-k1; note: in other assays of this panel Not Active means under 50% inhibition at 10 µM
T1 sequence (P25101 whole entry): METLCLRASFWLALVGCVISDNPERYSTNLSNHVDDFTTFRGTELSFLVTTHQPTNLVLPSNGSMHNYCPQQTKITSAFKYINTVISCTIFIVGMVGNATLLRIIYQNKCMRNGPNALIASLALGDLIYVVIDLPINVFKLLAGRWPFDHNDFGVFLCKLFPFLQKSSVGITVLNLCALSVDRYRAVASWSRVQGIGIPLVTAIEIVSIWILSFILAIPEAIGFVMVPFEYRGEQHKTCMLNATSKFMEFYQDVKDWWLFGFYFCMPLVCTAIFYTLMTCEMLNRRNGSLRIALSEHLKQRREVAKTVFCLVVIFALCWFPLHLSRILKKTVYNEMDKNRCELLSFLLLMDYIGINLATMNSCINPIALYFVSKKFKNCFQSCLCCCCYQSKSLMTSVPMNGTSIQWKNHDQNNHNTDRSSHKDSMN

[2] = molecular target: T2, 5-hydroxytryptamine receptor 1A (Rattus norvegicus, UniProt P19327); type: cell membranes, CHO-K1, Membrane; note: in other assays of this panel Not Active means under 50% inhibition at 10 µM
T2 sequence (P19327 whole entry): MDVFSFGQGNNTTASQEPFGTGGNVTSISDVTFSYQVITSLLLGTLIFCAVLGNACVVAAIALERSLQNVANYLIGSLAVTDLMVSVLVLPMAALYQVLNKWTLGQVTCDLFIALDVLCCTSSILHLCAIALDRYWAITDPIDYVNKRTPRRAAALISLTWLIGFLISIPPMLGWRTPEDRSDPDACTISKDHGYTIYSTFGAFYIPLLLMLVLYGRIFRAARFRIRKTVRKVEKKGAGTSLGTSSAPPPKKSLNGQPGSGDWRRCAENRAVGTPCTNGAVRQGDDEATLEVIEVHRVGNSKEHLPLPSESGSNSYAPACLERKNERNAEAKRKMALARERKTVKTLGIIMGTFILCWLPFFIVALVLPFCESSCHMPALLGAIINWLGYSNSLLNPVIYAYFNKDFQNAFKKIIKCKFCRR

[3] = DRUGMATRIX: Purinergic P2X radioligand binding (ligand: [3H] alpha, beta-Methylene-ATP); type: cell membranes, Oryctolagus cuniculus, New Zealand albino, Urinary bladder, Membrane; conditions: Not Active = under 50% inhibition at 10 µM
[4] = molecular target: T3, Vasoactive intestinal polypeptide receptor 1 (Homo sapiens, UniProt P32241); type: cell membranes, Membrane; conditions: ht-29; note: in other assays of this panel Not Active means under 50% inhibition at 10 µM
T3 sequence (P32241 whole entry): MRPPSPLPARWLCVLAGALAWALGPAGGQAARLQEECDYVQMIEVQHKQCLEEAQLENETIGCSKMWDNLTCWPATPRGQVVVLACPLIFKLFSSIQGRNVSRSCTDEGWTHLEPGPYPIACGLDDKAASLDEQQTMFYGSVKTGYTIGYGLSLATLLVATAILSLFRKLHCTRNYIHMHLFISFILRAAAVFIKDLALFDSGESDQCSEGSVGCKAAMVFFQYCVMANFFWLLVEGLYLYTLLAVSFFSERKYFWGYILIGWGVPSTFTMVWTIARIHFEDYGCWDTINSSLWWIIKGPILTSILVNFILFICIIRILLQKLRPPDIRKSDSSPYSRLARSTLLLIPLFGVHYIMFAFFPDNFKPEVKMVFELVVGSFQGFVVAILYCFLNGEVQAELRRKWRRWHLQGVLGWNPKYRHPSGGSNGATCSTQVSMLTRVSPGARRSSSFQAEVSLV

[5] = DRUGMATRIX: Interleukin IL-1 radioligand binding (ligand: [125I] interleukin 1beta); type: cell membranes, Membrane; conditions: nih3t3; Not Active = under 50% inhibition at 10 µM
[6] = molecular target: Voltage-gated inwardly rectifying potassium channel KCNH2 (Homo sapiens, UniProt Q12809); conditions: hek293; note: in other assays of this panel Not Active means under 50% inhibition at 10 µM
Voltage-gated inwardly rectifying potassium channel KCNH2, sequence (Q12809 whole entry): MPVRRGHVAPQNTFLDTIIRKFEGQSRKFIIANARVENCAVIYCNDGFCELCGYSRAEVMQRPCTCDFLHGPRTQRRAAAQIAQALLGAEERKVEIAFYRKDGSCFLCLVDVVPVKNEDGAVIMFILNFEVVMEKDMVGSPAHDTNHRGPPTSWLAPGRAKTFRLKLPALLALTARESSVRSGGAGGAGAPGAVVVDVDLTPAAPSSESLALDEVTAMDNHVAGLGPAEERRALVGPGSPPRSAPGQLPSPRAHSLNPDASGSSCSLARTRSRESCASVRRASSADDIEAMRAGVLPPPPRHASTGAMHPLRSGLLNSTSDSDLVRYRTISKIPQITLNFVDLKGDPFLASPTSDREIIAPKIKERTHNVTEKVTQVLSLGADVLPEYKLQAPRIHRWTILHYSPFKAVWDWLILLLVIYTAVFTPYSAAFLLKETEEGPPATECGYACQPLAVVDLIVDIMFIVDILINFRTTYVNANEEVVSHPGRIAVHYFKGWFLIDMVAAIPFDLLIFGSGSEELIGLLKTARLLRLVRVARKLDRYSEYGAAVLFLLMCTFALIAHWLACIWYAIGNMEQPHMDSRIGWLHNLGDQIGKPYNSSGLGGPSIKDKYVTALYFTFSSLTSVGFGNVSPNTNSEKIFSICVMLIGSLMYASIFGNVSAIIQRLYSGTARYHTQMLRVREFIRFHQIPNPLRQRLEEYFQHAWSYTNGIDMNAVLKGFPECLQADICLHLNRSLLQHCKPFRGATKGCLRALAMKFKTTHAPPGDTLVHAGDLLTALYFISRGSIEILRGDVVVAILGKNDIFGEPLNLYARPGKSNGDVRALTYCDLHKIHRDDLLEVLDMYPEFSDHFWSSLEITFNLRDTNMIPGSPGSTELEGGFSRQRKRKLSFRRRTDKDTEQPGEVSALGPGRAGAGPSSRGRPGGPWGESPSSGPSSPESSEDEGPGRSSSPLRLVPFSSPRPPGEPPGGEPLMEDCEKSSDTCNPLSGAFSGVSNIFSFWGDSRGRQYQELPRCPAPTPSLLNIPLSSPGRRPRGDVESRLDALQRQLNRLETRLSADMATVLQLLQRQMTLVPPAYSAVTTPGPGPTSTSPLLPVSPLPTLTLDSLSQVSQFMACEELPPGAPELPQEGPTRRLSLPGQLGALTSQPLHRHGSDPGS

Cytochrome P450 2C19, sequence (P33261 whole entry): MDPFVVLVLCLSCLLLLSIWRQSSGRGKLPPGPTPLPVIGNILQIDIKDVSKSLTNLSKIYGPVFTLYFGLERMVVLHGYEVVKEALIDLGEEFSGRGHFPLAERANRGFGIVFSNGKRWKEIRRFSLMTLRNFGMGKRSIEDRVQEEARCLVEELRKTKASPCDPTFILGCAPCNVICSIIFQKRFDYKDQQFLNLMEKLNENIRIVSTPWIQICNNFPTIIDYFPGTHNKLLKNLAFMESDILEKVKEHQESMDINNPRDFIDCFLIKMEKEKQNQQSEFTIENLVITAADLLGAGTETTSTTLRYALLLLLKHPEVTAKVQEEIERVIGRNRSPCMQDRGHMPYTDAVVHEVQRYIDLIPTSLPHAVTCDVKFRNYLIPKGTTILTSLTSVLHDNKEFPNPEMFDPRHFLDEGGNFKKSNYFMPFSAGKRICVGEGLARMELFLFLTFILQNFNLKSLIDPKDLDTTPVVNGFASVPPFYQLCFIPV
5-hydroxytryptamine receptor 4, sequence (O70528 whole entry): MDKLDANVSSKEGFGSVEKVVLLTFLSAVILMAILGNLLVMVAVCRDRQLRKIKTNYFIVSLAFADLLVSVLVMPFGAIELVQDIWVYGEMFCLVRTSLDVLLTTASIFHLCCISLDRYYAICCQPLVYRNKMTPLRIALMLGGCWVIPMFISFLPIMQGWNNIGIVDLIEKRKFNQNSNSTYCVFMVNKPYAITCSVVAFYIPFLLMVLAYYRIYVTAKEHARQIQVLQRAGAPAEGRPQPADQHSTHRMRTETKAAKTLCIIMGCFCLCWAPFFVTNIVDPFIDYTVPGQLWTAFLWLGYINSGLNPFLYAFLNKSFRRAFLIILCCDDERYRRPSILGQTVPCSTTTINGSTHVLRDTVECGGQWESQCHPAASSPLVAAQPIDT

| SMILES | IC50 (Cytochrome P450 2C19) | Ki (Cytochrome P450 2C19) | IC50 [1] | IC50 (Endothelin-1 receptor) | IC50 ([2]; cho-k1) | IC50 [3] | Ki [3] | IC50 [4] | IC50 [5] | Ki [5] | IC50 [6] | Ki [6] | IC50 ([2]; read-out: IC50) | Ki ([2]; read-out: Ki) | Ki [1] |
| --- | --- | --- | --- | --- | --- | --- | --- | --- | --- | --- | --- | --- | --- | --- | --- |
| C=C1/C(=C\C=C2/CCC[C@]3(C)[C@@H]([C@H](C)CCCC(C)C)CC[C@@H]23)C[C@@H](O)C[C@@H]1O [ALFACALCIDOL] | Not Active | Not Active | Not Active | Not Active | Not Active | Not Active | Not Active | Not Active | Not Active | Not Active | Not Active | Not Active |  |  |  |
| CCCCCC[C@H]1C(=O)O[C@H](C)[C@H](NC(=O)c2cccc(NC=O)c2O)C(=O)O[C@@H](C)[C@@H]1OC(=O)CC(C)C [ANTIMYCIN A] | Not Active | Not Active | Not Active | Not Active | Not Active | Not Active | Not Active | Not Active | Not Active | Not Active | Not Active | Not Active |  |  |  |
| CO[C@H]1[C@@H](O)[C@H](N)[C@@H](O[C@H]2O[C@H]([C@H](C)N)CC[C@H]2N)[C@H](O)[C@@H]1N(C)C(=O)CN [ASTROMICIN] | Not Active | Not Active | Not Active | Not Active | Not Active | Not Active | Not Active | Not Active | Not Active | Not Active | Not Active | Not Active |  |  |  |
| [N-]=[N+]=CC(=O)OC[C@H](N)C(=O)O [AZASERINE] | Not Active | Not Active | Not Active | Not Active | Not Active | Not Active | Not Active | Not Active | Not Active | Not Active | Not Active | Not Active |  |  |  |
| CC[C@H]1OC(=O)[C@H](C)[C@@H](O[C@H]2C[C@@](C)(OC)[C@@H](O)[C@H](C)O2)[C@H](C)[C@@H](O[C@@H]2O[C@H](C)C[C@H](N(C)C)[C@H]2O)[C@](C)(O)C[C@@H](C)CN(C)[C@H](C)[C@@H](O)[C@]1(C)O [AZITHROMYCIN] | Not Active | Not Active | Not Active | Not Active | Not Active | Not Active | Not Active | Not Active | Not Active | Not Active | Not Active | Not Active |  |  |  |
| CC(C)(C)c1ccc(S(=O)(=O)/C=C/C#N)cc1 [BAY-11-7085] | Not Active | Not Active | Not Active | Not Active | Not Active | Not Active | Not Active | Not Active | Not Active | Not Active | Not Active | Not Active |  |  |  |
| CCc1oc2ccccc2c1C(=O)c1cc(Br)c(O)c(Br)c1 [BENZBROMARONE] | Not Active | Not Active | Not Active | Not Active | Not Active | Not Active | Not Active | Not Active | Not Active | Not Active | Not Active | Not Active |  |  |  |
| O=c1cc(-c2ccccc2)oc2ccc3ccccc3c12 [BETA-NAPHTHOFLAVONE] | Not Active | Not Active | Not Active | Not Active | Not Active | Not Active | Not Active | Not Active | Not Active | Not Active | Not Active | Not Active |  |  |  |
| CC(C)C[C@H]1C(=O)N2CCC[C@H]2[C@]2(O)O[C@](NC(=O)[C@@H]3C=C4c5cccc6[nH]c(Br)c(c56)C[C@H]4N(C)C3)(C(C)C)C(=O)N12 [BROMOCRIPTINE] | Not Active | Not Active | Not Active | Not Active |  | Not Active | Not Active | Not Active | Not Active | Not Active | Not Active | Not Active | 5.64 nM | 3.22 nM |  |
| CS(=O)(=O)OCCCCOS(C)(=O)=O [BUSULFAN] | Not Active | Not Active | Not Active | Not Active | Not Active | Not Active | Not Active | Not Active | Not Active | Not Active | Not Active | Not Active |  |  |  |
| O=C(/C=C/c1ccc(O)c(O)c1)OCCc1ccccc1 [CAFFEIC ACID PHENETHYL ESTER] | Not Active | Not Active | Not Active | Not Active | Not Active | Not Active | Not Active | Not Active | Not Active | Not Active | Not Active | Not Active |  |  |  |
| COc1cc(CNC(=O)CCCC/C=C/C(C)C)ccc1O [CAPSAICIN] | Not Active | Not Active | Not Active | Not Active | Not Active | Not Active | Not Active | Not Active | Not Active | Not Active | Not Active | Not Active |  |  |  |
| NC(=O)N1c2ccccc2C=Cc2ccccc21 [CARBAMAZEPINE] | Not Active | Not Active | Not Active | Not Active | Not Active | Not Active | Not Active | Not Active | Not Active | Not Active | Not Active | Not Active |  |  |  |
| CCOC(=O)n1ccn(C)c1=S [CARBIMAZOLE] | Not Active | Not Active | Not Active | Not Active | Not Active | Not Active | Not Active | Not Active | Not Active | Not Active | Not Active | Not Active |  |  |  |
| Oc1ccccc1O [CATECHOL] | Not Active | Not Active | Not Active | Not Active | Not Active | Not Active | Not Active | Not Active | Not Active | Not Active | Not Active | Not Active |  |  |  |
| CO[C@@]1(NC(=O)CSCC#N)C(=O)N2C(C(=O)O)=C(CSc3nnnn3C)CS[C@@H]21 [CEFMETAZOLE] | Not Active | Not Active | Not Active | Not Active | Not Active | Not Active | Not Active | Not Active | Not Active | Not Active | Not Active | Not Active |  |  |  |
| CN(C(=O)CCCOc1ccc2[nH]c(=O)ccc2c1)C1CCCCC1 [CILOSTAMIDE] | Not Active | Not Active | Not Active | Not Active | Not Active | Not Active | Not Active | Not Active | Not Active | Not Active | Not Active | Not Active |  |  |  |
| CC(C)(Oc1ccc(C2CC2(Cl)Cl)cc1)C(=O)O (centres undefined) [CIPROFIBRATE] | Not Active | Not Active |  | Not Active | Not Active | Not Active | Not Active | Not Active | Not Active | Not Active | Not Active | Not Active |  |  | Not Active |
| Nc1nc(Cl)nc2c1ncn2[C@H]1C[C@H](O)[C@@H](CO)O1 [CLADRIBINE] | Not Active | Not Active | Not Active | Not Active | Not Active | Not Active | Not Active | Not Active | Not Active | Not Active | Not Active | Not Active |  |  |  |
